From patent US9765075B2, “Substituted bridged urea analogs as sirtuin modulators” (GLAXOSMITHKLINE LLC, priority 2013, dated 2017)
Numbering of substitutions follows the chain as printed. Counter-ions that a name gives are not always drawn.

What was measured:
Assay in all cases: SIRT1 inhibition assay, OAcADPr mass spectrometry
Type in all cases: biochemical
full-length hSIRT1 I223A = biological target: T1, full-length hSIRT1 I223A (Homo sapiens, UniProt Q96EB6, I223A)
T1 construct: The following point mutants of full-length hSIRT1 were generated; His6 (C); made in house
T1 sequence (Q96EB6 1-747 I223A): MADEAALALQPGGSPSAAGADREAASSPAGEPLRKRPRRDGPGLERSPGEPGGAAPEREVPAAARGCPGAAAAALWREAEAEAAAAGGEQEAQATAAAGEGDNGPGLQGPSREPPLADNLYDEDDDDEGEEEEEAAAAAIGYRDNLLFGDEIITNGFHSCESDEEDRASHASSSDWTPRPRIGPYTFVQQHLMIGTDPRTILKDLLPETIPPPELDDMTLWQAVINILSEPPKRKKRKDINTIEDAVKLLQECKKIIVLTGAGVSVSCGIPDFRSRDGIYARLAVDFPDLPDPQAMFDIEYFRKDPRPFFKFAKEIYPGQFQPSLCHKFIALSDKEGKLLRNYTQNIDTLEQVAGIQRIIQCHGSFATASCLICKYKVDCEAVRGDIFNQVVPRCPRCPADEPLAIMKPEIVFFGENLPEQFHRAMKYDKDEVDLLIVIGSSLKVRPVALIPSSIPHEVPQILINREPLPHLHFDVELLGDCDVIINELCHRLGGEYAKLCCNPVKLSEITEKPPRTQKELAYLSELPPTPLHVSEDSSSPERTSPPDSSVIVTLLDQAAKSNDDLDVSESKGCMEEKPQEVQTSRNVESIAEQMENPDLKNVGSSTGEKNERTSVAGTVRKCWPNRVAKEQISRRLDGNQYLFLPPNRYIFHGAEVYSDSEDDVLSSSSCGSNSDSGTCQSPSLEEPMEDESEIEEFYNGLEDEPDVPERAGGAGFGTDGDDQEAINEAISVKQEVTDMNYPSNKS
Description: (§1) SIRT1 activation and inhibition assays were run in reaction buffer with 0.05% BSA at 25° C. and analyzed using the OAcADPr assay. Enzyme and compound were pre-incubated for 20 minutes before addition of substrates.

full-length hSIRT1 V224A = biological target: T2, full-length hSIRT1 V224A (Homo sapiens, UniProt Q96EB6, V224A)
T2 construct: The following point mutants of full-length hSIRT1 were generated; His6 (C); made in house
T2 sequence (Q96EB6 1-747 V224A): T1 sequence (Q96EB6 1-747 I223A) with A223I, V224A
Description: as §1

[1] = biological target: T3, full-length hSIRT1 wild-type (Homo sapiens, UniProt Q96EB6)
T3 construct: Full-length human SIRT1 (hSIRT1) proteins were expressed with a C-terminal His6 tag; His6 (C); made in house
T3 sequence (Q96EB6 1-747): T1 sequence (Q96EB6 1-747 I223A) with A223I
Description: as §1

CCCC[C@H](NC(=O)[C@H](CC(C)C)NC(=O)[C@H](CCCCNC(=O)C(F)(F)F)NC(=O)[C@H](CCCCN)NC(=O)[C@H](Cc1c[nH]cn1)NC(=O)[C@H](CCCNC(=N)N)NC(C)=O)C(=O)N[C@@H](Cc1ccccc1)C(N)=O [TFA-p53 7-mer, Ac-RHK-K^TFA-L-Nle-F-NH2]
IC50 (full-length hSIRT1 I223A): 540 ± 150 nM | IC50 (full-length hSIRT1 V224A): 860 ± 80 nM | IC50 [1]: 680 ± 70 nM
